The source of these data is ChEMBL document CHEMBL5346970, “Targeting EP2 Receptor for Drug Discovery: Strengths, Weaknesses, Opportunities, and Threats (SWOT) Analysis” (J Med Chem, 2023).

For data set [1], the system named is SK-N-AS. The data set is described as follows: Antitumor activity against human SK-N-AS cells xenografted in athymic nude mouse assessed as reduction in tumor proliferation at 10 mg/kg, ip administered once daily for 18 days by Ki-67 staining based immunohistochemistry analysis relative to control. The data set is classed as functional. The arrangement: scale not given: the % may be the effect or the level left. The note with it: time 18 day.

For data set [2], the system named is SK-N-AS. Briefly: Antitumor activity against human SK-N-AS cells xenografted in athymic nude mouse assessed as reduction in tumor proliferation at 20 mg/kg, ip administered once daily for 18 days by Ki-67 staining based immunohistochemistry analysis relative to control. The arrangement: scale not given: the % may be the effect or the level left. The note with it: time 18 day. The data set is classed as functional.

In data set [3] the target is Prostaglandin E2 receptor EP2 subtype (Mus musculus, UniProt Q62053). Briefly: Antagonist activity at EP2 receptor in C57BL/6 mouse trachea assessed as inhibition of PGE2-induced relaxation in rings of trachea pretreated for 30 mins in presence of carbachol followed by PGE2 relaxation. The data set is classed as functional, tissue-based.
Prostaglandin E2 receptor EP2 subtype, sequence (Q62053 whole entry): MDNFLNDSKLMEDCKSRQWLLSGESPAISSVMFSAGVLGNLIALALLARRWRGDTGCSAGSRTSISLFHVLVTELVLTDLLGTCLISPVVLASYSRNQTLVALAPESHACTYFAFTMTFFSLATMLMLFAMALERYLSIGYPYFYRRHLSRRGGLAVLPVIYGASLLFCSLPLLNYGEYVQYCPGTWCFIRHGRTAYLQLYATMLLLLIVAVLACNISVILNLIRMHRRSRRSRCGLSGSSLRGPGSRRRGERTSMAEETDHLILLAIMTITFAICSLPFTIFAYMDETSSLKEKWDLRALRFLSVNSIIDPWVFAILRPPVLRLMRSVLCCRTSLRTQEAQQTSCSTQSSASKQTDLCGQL
The nature of data set [4]: Oral bioavailability in Sprague-Dawley rat at 0.1 ml/kg. The data set is classed as ADME, organism-based. Conditions: in vivo.
A short description of data set [5]: Terminal half life in Sprague-Dawley rat at 0.1 ml/kg, po. The data set is classed as ADME. The note with it: in vivo, read-out: beta t1/2 (converted).

For the compound `CCc1nnc(NS(=O)(=O)c2ccc(NC(=S)NC(=O)/C=C/c3ccc(F)cc3)cc2)s1`, the Activity in data set [1] is given as 25%; in data set [2], 55%.
For the compound `COc1ccc2cc(OCC3(C(=O)O)CN(C(=O)c4ccc(F)cc4)C3)ccc2c1` [PF-04418948], the IC50 in data set [3] stood at 2.7 nM. Further, the bioavailability in data set [4] amounted to 78%. Also, in data set [5], the half-life is 8.8 h.
